The values that follow come from patent publication US20210186860A1, “Improved Delivery Systems for Moieties Including CBD Enhanced Combinations, Formulations and Chimeras” (LIFE TECH GLOBAL, LLC, priority 2017, published 2021).

A short description of this data set: Transdermal flux / transdermal delivery from patch. The format is in vitro ADME. The conditions noted are these: enhancer at 3% in PIB adhesive.

Take `CCCCCCCCCCCCN1CCCCCC1=O` [Azon]: the “transdermal delivery from PIB” value is recorded as “double”. As to `CCCCCCCC/C=C\CCCCCCCC(=O)O` [oleic acid], the “transdermal delivery from PIB” value was “double”.
